{
  "source": "patent EP0361645B1",
  "about": "“Organic hydrazine derivatives for pharmaceutical use” (ROHM AND HAAS COMPANY, priority 1988, dated 1990)",
  "key": {"Kr cells [1]": {"system": "Kr cells", "experiment": "Process elaboration and inhibition of cell proliferation in Kr cells", "format": "cell-based, Drosophila", "details": "Drosophila melanogaster; 48 hours incubation; initial cell density 2 X 10^6 cells/ml", "procedure": "The invention will now be further described by way of exemplification and by reference to the drawings in which; • Figure 1. Both 20-hydroxyecdysone and Example No. 3 induce process elaboration (A) and inhibition of cell proliferation (B) in Kr cells in a dose-dependent manner. Initial cell density was 2 X 10^6 cells/ml; after incubation of 1 ml aliquots of the cells with the compound for 48 hours the cells were triturated gently and the percentage of cells responding (with processes longer than approximately 17 um, see Cherbas et al. 189 Wilhelm Roux's Arch. 1 (1980)) and total cell density was determined by hemocytom- eter counting, relative to ethanol (1 ul)-treated controls. Determinations were in triplicate for each dose. […] Induction of acetylcholinesterase by varying concentrations of 20-hydroxyecdysone and Example No. 3. Kr cells at an initial density of 3 X 10^6 cells/ml (10 ml per sample) were incubated with the agonist for three days. After harvesting, by centrifugation at 3000 X g, the cell pellets were washed with Robb's Drosophila saline (18, 2 X 5 ml) at 4 ° C, then lysed by sonication in 1 ml of phosphate buffer (pH 7.4, I = 0.1 M) containing 0.5 M NaCI, 0.25 M EDTA and 0.5% TRITON? X-100. See Cherbas, 197 Science 275 (1977). Triton is a registered trademark of Rohm and Haas Company for a alkylaryl polyoxyethylene glycol surfactant. After centrifugation at 16,000 X g, the supernatants were assayed for acetylcholinesterase activity by an adaptation of the method of Ellman et al., 7 Biochem. Pharmacol. 88 (1961), by subtracting out any 412 nm absorbance observed in incubations in the presence of 2 X 10-5 eserine sulfate. Thus reaction mixtures contained 50 ul of enzyme extract, 20 ul eserine (blank tubes only) and 1.0 ml of 0.5 mM acetylthiocholine, 0.3 mM dithiobisnitrobenzoic acid in phosphate buffer (pH 7.4, I = 0.1 M). Incubations were at 25 ° C for two hours; reactions in active tubes were terminated by addition of eserine. Absorbance at 412 nm was then measured. Protein concentration in extracts was measured by the Biorad method. […] Scatchard plot of ^3H-ponasterone A binding to Kr cell cytosolic receptor extracts in the presence of differing concentrations of Example No. 3. Cytosolic extract preparation and ecdysteroid receptor assays were essentially as described in Sage, 111 Meth. in Enzymol. 458 (1985). Example No. 3 was added in 1 ul DMSO to 50 ul of radioligand in 10 mM Tris buffer (pH 7.2) and 50 ul of undiluted cytosol extract. […] Ecdysteroid titers were measured by a radioimmunoassay adapted from Warren et al., 40 Experientia 393 (1984) with Protein A-Staph. aureus suspension (Sigma) used as the reagent to separate bound from free ligand. […]"}, "Kr cells [2]": {"system": "Kr cells", "experiment": "Resistant Kr cell populations: response and ecdysteroid receptor activity", "format": "cell-based, Drosophila", "details": "for response of surviving cells (process elaboration, proliferation): four weeks in 1 X 10^-6 M 20 hydroxyecdysone or 1 X 10^-4 M Example No. 3; for ^3H-ponasterone A bound by resistant cell populations: populations reared in 1 X 10^-6 M 20-hydroxyecdysone or 1 X 10^-4 M Example No. 3, solvent controls 10.1", "procedure": "Resistant Kr cell populations were reared by incubating cells at an initial density of 8 X 10^6 cells/ml with hormone or Example No. 3. The cells killed by treatment provide a feeder layer for the resistant populations. […] Ponasterone binding was assayed as described below and protein concentrations were determined using the Biorad method. This cross-resistance is compelling evidence that 20-hydroxyecdysone and Example No. 3 act through the ecdysone receptor."}, "intact L5D0 hornworms": {"system": "intact L5D0 hornworms", "experiment": "Premature head capsule apolysis in intact L5D0 hornworms, injected", "format": "in vivo, M. sexta", "details": "for ED50: Manduca sexta, L5D0 larvae, read-out: 50% effective dose", "procedure": "L4D1 means fourth instar, first day after molting. L4 animals 36 hours after ecdysis were ligated, decapitated and next day injected with varying doses of compound in 1 - 2 ul DMSO. They were scored as follows: 0 = normal L4 abdomens with no L5 crochets or spiracle apolysis; 1 = exposed dorsal vessel (response to moderate levels of molting hormone in the presence of low JH levels); 2 = L5 crochets formed but no spiracle apolysis; 3 = L5 crochets formed and mild spiracle apolysis; 4 = strong molting response, both L5 crochets and spiracle cuticle synthesized. These methods are an adaptation of the method of J. W. Truman, L. M. Riddiford, L. Safranek, 39 Dev. Biol 247 (1974). Injection and scoring of L5D3 abdomens (weighing 6.5 - 7.5 g) are also adaptations of previous methods in H. F. Nijhout, 22 J. Insect Physiol. 453 (1976). Mature feeding stage fifth instar animals weighing 8.5 - 9.5 g were ligated and decapitated, and immediately injected with Example No. 3 in 2 - 5 ul DMSO. Animals were held over moistened filter paper at 25 ° C and were scored after three days. Scoring was as follows: 0 = normal undeveloped blue-green L5D3 abdomen; 1 = light dorsal vessel exposure; 2 = dorsal vessel well-exposed with mild cuticular blanching, abdominal contraction; 3 = complete prepupal cuticle formation with strong abdominal contraction and strong cuticular blanching. For both L4 and L5 abdomens, 50% effective doses were determined by plotting the mean score for all individuals vs. dose, then determining the dose which gives a score of 2.0 and 1.5 respectively. Intact L5D0 hornworms were either allowed to feed on treated commercial black cutworm diet or injected into a proleg and scored after 48 hours. The 50% effective dose was calculated by plotting percentage of the population bearing a prematurely apolysed head capsule vs. dose. For all experiments in this table at least 5 different doses with 10 animals per dose were used.\nThe dosage differences between the two compounds was even more dramatic in bioassays on intact (unligated) L5D0 hornworms. […]"}},
  "data": [
    {"compound": "CC(C)(O)CC[C@@H](O)[C@](C)(O)[C@H]1CC[C@@]2(O)C3=CC(=O)[C@@H]4C[C@@H](O)[C@@H](O)C[C@]4(C)[C@H]3CC[C@]12C", "note": "[20-hydroxyecdysone, reference compound]", "values": [
      {"measurement": "EC50", "setting": "Kr cells [1]", "result": 0.035, "unit": "µM"},
      {"measurement": "response of surviving cells (process elaboration, proliferation)", "setting": "Kr cells [2]", "result": "do not respond to either compound"},
      {"measurement": "^3H-ponasterone A bound by resistant cell populations", "setting": "Kr cells [2]", "result": "1.5 femtomoles ^3H-ponasterone A per mg cytosolic protein"},
      {"measurement": "ED50", "setting": "intact L5D0 hornworms", "result": 181, "unit": "mg/kg"}
    ]},
    {"compound": "CC(C)(C)N(NC(=O)c1ccccc1)C(=O)c1ccccc1", "note": "[Example No. 3, N'-t-butyl-N,N'-dibenzoylhydrazine]", "values": [
      {"measurement": "EC50", "setting": "Kr cells [1]", "result": 4.8, "unit": "µM"},
      {"measurement": "response of surviving cells (process elaboration, proliferation)", "setting": "Kr cells [2]", "result": "do not respond to either compound"},
      {"measurement": "^3H-ponasterone A bound by resistant cell populations", "setting": "Kr cells [2]", "result": "1.4 femtomoles ^3H-ponasterone A per mg cytosolic protein"},
      {"measurement": "ED50", "setting": "intact L5D0 hornworms", "result": 3.4, "unit": "mg/kg"},
      {"measurement": "fold as effective as 20-hydroxyecdysone", "setting": "intact L5D0 hornworms; intact L5D0 hornworms", "result": 67, "unit": "fold"}
    ]}
  ]
}
